Patent publication US20240349726A1, “SUBSTITUTED 1,2,4-THIADIAZOLYL NICOTINAMIDES, SALTS OR N-OXIDES THEREOF AND THEIR USE AS HERBICIDALLY ACTIVE SUBSTANCES” (Bayer Aktiengesellschaft, priority 2021, published 2024)

Assays:
Type in all cases: in vivo
Stellaria media [1] = test: Herbicidal pre-emergence action, STEME; conditions: visual grading after ca. 3 weeks vs untreated controls
Text: (§1) Seeds of mono- and dicotyledonous weed plants were sown in plastic pots (double sowings with one species of mono- and one species of dicotyledonous weed plants per pot), in sandy loam, and covered with soil. The compounds according to the invention, formulated in the form of wettable powders (WP) or as emulsifiable concentrates (EC), were applied to the surface of the covering soil as an aqueous suspension or as an emulsion, with the addition of 0.5% of an additive, at an application rate of 600 litres of water per hectare (converted). Following treatment, the pots were placed in a greenhouse and kept under optimum growth conditions for the test plants. The visual grading of the damage to the test plants is carried out after ca. 3 weeks in comparison to untreated controls (herbicidal effect in percent (%): 100% effect=plants have died, 0% effect=as control plants). Seeds of mono- and dicotyledonous weed plants were sown in plastic pots (double sowings with one species of mono- and one species of dicotyledonous weed plants per pot), in sandy loam, and covered with soil. The compounds according to the invention, formulated in the form of wettable powders (WP) or as emulsifiable concentrates (EC), were applied to the surface of the covering soil as an aqueous suspension or as an emulsion, with the addition of 0.5% of an additive, at an application rate of 600 litres of water per hectare (converted). Following treatment, the pots were placed in a greenhouse and kept under optimum growth conditions for the test plants. The visual grading of the damage to the test plants is carried out after ca. 3 weeks in comparison to untreated controls (herbicidal effect in percent (%): 100% effect=plants have died, 0% effect=as control plants).

Amaranthus retroflexus [2] = test: Herbicidal post-emergence action, AMARE; conditions: assessed visually after ca. 3 weeks vs untreated controls
Text: (§2) Seeds of mono- and dicotyledonous weed plants were sown in plastic pots (double sowings with one species of mono- and one species of dicotyledonous weed plants per pot), in sandy loam, covered with soil and grown under controlled growth conditions. 2 to 3 weeks after sowing, the test plants were sprayed in the single-leaf stage. The compounds according to the invention, formulated in the form of wettable powders (WP) or as emulsifiable concentrates (EC), were sprayed onto the green plant parts as an aqueous suspension or as an emulsion, with the addition of 0.5% of an additive, at an application rate of 600 litres of water per hectare (converted). The test plants were placed in the greenhouse for ca. 3 weeks under optimum growth conditions, and then the effect of the preparations is assessed visually in comparison with untreated controls (herbicidal effect in percent (%): 100% effect=plants have died, 0% effect=as control plants). […]

Stellaria media [3] = test: Herbicidal post-emergence action, STEME; conditions: assessed visually after ca. 3 weeks vs untreated controls
Text: as §2

Veronica persica [4] = test: Herbicidal post-emergence action, VERPE; conditions: assessed visually after ca. 3 weeks vs untreated controls
Text: as §2

Poa annua [5] = test: Herbicidal post-emergence action, POAAN; conditions: assessed visually after ca. 3 weeks vs untreated controls
Text: as §2

Poa annua [6] = test: Herbicidal pre-emergence action, POAAN; conditions: visual grading after ca. 3 weeks vs untreated controls
Text: as §1

Matricaria inodora [7] = test: Herbicidal pre-emergence action, MATIN; conditions: 1280 g/ha, visual grading after ca. 3 weeks vs untreated controls
Text: as §1

Kochia scoparia = test: Herbicidal post-emergence action, KCHSC; conditions: 1280 g/ha, assessed visually after ca. 3 weeks vs untreated controls
Text: as §2

Lolium rigidum = test: Herbicidal pre-emergence action, LOLRI; conditions: 1280 g/ha, visual grading after ca. 3 weeks vs untreated controls
Text: as §1

Amaranthus retroflexus [8] = test: Herbicidal pre-emergence action, AMARE; conditions: 1280 g/ha, visual grading after ca. 3 weeks vs untreated controls
Text: as §1

Matricaria inodora [9] = test: Herbicidal post-emergence action, MATIN; conditions: assessed visually after ca. 3 weeks vs untreated controls
Text: as §2

Veronica persica [10] = test: Herbicidal pre-emergence action, VERPE; conditions: 1280 g/ha, visual grading after ca. 3 weeks vs untreated controls
Text: as §1

COc1nccc(C(C)C)c1C(=O)Nc1ncns1 [Example I-027]
herbicidal effect STEME (Stellaria media [1]; 1280 g/ha): 90%

Cc1ccnc(Br)c1C(=O)Nc1ncns1 [Example I-022, 2-bromo-4-methyl-N-(1,2,4-thiadiazol-5-yl)pyridine-3-carboxamide]
herbicidal effect AMARE (Amaranthus retroflexus [2]; 1280 g/ha): 90%
herbicidal effect STEME (Stellaria media [1]; 1280 g/ha): 100%
herbicidal effect STEME (Stellaria media [3]; 1280 g/ha): 90%

COc1nccc(C(F)(F)F)c1C(=O)Nc1ncns1 [Example I-010]
herbicidal effect VERPE (Veronica persica [4]; 320 g/ha): 100%
herbicidal effect VERPE (Veronica persica [4]; 1280 g/ha): 100%
herbicidal effect POAAN (Poa annua [5]; 320 g/ha): 90%
herbicidal effect POAAN (Poa annua [5]; 1280 g/ha): 90%
herbicidal effect POAAN (Poa annua [6]; 1280 g/ha): 100%
herbicidal effect AMARE (Amaranthus retroflexus [2]; 320 g/ha): 100%
herbicidal effect AMARE (Amaranthus retroflexus [2]; 1280 g/ha): 100%
herbicidal effect MATIN (Matricaria inodora [7]): 100%
herbicidal effect STEME (Stellaria media [1]; 1280 g/ha): 90%
herbicidal effect KCHSC (Kochia scoparia): 100%
herbicidal effect LOLRI (Lolium rigidum): 100%

Cc1cc(F)ncc1C(=O)Nc1ncns1 [Example I-023]
herbicidal effect AMARE (Amaranthus retroflexus [8]): 90%
herbicidal effect POAAN (Poa annua [6]; 1280 g/ha): 100%
herbicidal effect AMARE (Amaranthus retroflexus [2]; 1280 g/ha): 90%
herbicidal effect MATIN (Matricaria inodora [7]): 100%
herbicidal effect STEME (Stellaria media [1]; 1280 g/ha): 90%

CCc1ccnc(Cl)c1C(=O)Nc1ncns1 [Example I-004]
herbicidal effect VERPE (Veronica persica [4]; 1280 g/ha): 100%
herbicidal effect POAAN (Poa annua [5]; 1280 g/ha): 100%
herbicidal effect AMARE (Amaranthus retroflexus [8]): 90%
herbicidal effect POAAN (Poa annua [6]; 1280 g/ha): 90%
herbicidal effect AMARE (Amaranthus retroflexus [2]; 1280 g/ha): 100%
herbicidal effect MATIN (Matricaria inodora [7]): 90%
herbicidal effect STEME (Stellaria media [1]; 1280 g/ha): 100%
herbicidal effect LOLRI (Lolium rigidum): 100%

O=C(Nc1ncns1)c1cnc(Cl)cc1C(F)(F)F [Example I-024]
herbicidal effect MATIN (Matricaria inodora [9]; 320 g/ha): 90%
herbicidal effect MATIN (Matricaria inodora [9]; 1280 g/ha): 100%
herbicidal effect VERPE (Veronica persica [4]; 1280 g/ha): 90%
herbicidal effect AMARE (Amaranthus retroflexus [2]; 1280 g/ha): 90%
herbicidal effect MATIN (Matricaria inodora [7]): 90%

Cc1ccnc(Cl)c1C(=O)Nc1ncns1 [Example I-003]
herbicidal effect VERPE (Veronica persica [4]; 320 g/ha): 90%
herbicidal effect VERPE (Veronica persica [4]; 1280 g/ha): 100%
herbicidal effect AMARE (Amaranthus retroflexus [8]): 100%
herbicidal effect POAAN (Poa annua [6]; 1280 g/ha): 100%
herbicidal effect AMARE (Amaranthus retroflexus [2]; 320 g/ha): 90%
herbicidal effect AMARE (Amaranthus retroflexus [2]; 1280 g/ha): 90%
herbicidal effect MATIN (Matricaria inodora [7]): 100%
herbicidal effect VERPE (Veronica persica [10]): 90%
herbicidal effect STEME (Stellaria media [1]; 1280 g/ha): 100%
herbicidal effect STEME (Stellaria media [3]; 1280 g/ha): 90%

O=C(Nc1nc(Br)ns1)c1cnccc1C(F)(F)F [Example I-014]
herbicidal effect MATIN (Matricaria inodora [9]; 1280 g/ha): 100%
herbicidal effect VERPE (Veronica persica [4]; 1280 g/ha): 100%
herbicidal effect AMARE (Amaranthus retroflexus [2]; 1280 g/ha): 100%
herbicidal effect KCHSC (Kochia scoparia): 90%
herbicidal effect STEME (Stellaria media [3]; 320 g/ha): 90%
herbicidal effect STEME (Stellaria media [3]; 1280 g/ha): 100%

Cc1ccncc1C(=O)Nc1ncns1 [Example I-011]
herbicidal effect AMARE (Amaranthus retroflexus [8]): 100%
herbicidal effect POAAN (Poa annua [6]; 320 g/ha): 90%
herbicidal effect POAAN (Poa annua [6]; 1280 g/ha): 100%
herbicidal effect MATIN (Matricaria inodora [7]): 90%
herbicidal effect STEME (Stellaria media [1]; 320 g/ha): 90%
herbicidal effect STEME (Stellaria media [1]; 1280 g/ha): 90%

Cc1cc(Cl)nc(Cl)c1C(=O)Nc1ncns1 [Example I-020, 2,6-dichloro-4-methyl-N-(1,2,4-thiadiazol-5-yl)pyridine-3-carboxamide]
herbicidal effect MATIN (Matricaria inodora [9]; 1280 g/ha): 90%
herbicidal effect VERPE (Veronica persica [4]; 1280 g/ha): 100%
herbicidal effect AMARE (Amaranthus retroflexus [8]): 90%
herbicidal effect AMARE (Amaranthus retroflexus [2]; 1280 g/ha): 90%
herbicidal effect MATIN (Matricaria inodora [7]): 90%
herbicidal effect STEME (Stellaria media [1]; 320 g/ha): 90%
herbicidal effect STEME (Stellaria media [1]; 1280 g/ha): 100%
herbicidal effect STEME (Stellaria media [3]; 1280 g/ha): 90%

CC(C)c1ccnc(Cl)c1C(=O)Nc1ncns1 [Example I-026, 2-chloro-4-isopropyl-N-(1,2,4-thiadiazol-5-yl)pyridine-3-carboxamide]
herbicidal effect VERPE (Veronica persica [4]; 1280 g/ha): 90%
herbicidal effect AMARE (Amaranthus retroflexus [8]): 100%
herbicidal effect AMARE (Amaranthus retroflexus [2]; 320 g/ha): 90%
herbicidal effect AMARE (Amaranthus retroflexus [2]; 1280 g/ha): 100%
herbicidal effect MATIN (Matricaria inodora [7]): 100%
herbicidal effect STEME (Stellaria media [1]; 320 g/ha): 90%
herbicidal effect STEME (Stellaria media [1]; 1280 g/ha): 100%
herbicidal effect KCHSC (Kochia scoparia): 90%
herbicidal effect STEME (Stellaria media [3]; 1280 g/ha): 100%
herbicidal effect LOLRI (Lolium rigidum): 100%
